According to PubChem BioAssay AID464 (The Scripps Research Institute Molecular Screening Center, 2006):
Active and inactive are the calls of the source.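 How the source made its calls: active means Compounds that kill half the cells at a concentration of 5 micromolar or below, from the fitted or estimated CC50; inactive means CC50 above 5 micromolar.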

test system: Jurkat E6.1 viability, ATP luminescence, 48 h; test: Jurkat E6.1 cell cytotoxicity, CC50 determination, dose response, cytotoxicity control, ATP luminescence, 48 h, 60K MLSMR (AID 464)

| SMILES | CC50 |
| --- | --- |
| COc1cccc(OC)c1-c1nn2c(-c3cc(-c4ccccc4)n[nH]3)nnc2s1 | 8.6 µM (inactive) |
| CSCc1nnc(NC(=O)c2ccc(S(=O)(=O)N(CC(C)C)CC(C)C)cc2)o1 | 21.1 µM (inactive) |
| COc1cc(C2=NOC(C(=O)NCc3ccco3)C2)cc(OC)c1OC (stereo unspecified) | 2.21 µM |
| CC(C)C(=O)NC(c1ccco1)c1ccc2cccnc2c1O (stereo unspecified) | 2.89 µM |
| Cc1nc(NCc2ccco2)c2c3c(sc2n1)CCC3 | 15.6 µM (inactive) |
| CCOC(=O)CSC1=C(C#N)C(c2ccc(C)s2)CC(=O)N1 (stereo unspecified) | 1.56 µM |
| C/C=C/COC(=O)c1[nH]c2c(c1C)C(=O)CC(c1ccco1)C2 (stereo unspecified) | 0.196 µM |
| Cc1ccc2[nH]c(=O)c(CN(Cc3ccco3)C(=O)c3ccncc3)cc2c1 | 6.52 µM (inactive) |
| NS(=O)(=O)c1ccc(CCNc2ncnc3sccc23)cc1 | 3.37 µM |
| Cc1cc(NC(=O)COC(=O)c2ccc(S(=O)(=O)N3CCCc4ccccc43)cc2)no1 | 2.16 µM |
| CN(C)c1ccc(C2C=C(c3ccc(Cl)cc3OC(F)F)Nc3ncnn32)cc1 (stereo unspecified) | 3.56 µM |
| COc1cc(C(=O)OCC(=O)c2cc(C)n(C)c2C)cc(OC)c1OC | > 4.4 µM (inactive) |
| COc1ccc(C2NCc3ccc4c(c3-n3cccc32)OCO4)cc1O (stereo unspecified) | 0.999 µM |
| O=C(NCC(c1cccs1)N1CCOCC1)c1ccc(Cl)s1 (stereo unspecified) | 0.882 µM |
| O=C(Oc1ccc2c(c1)OCO2)c1cc2c(s1)CCC2 | > 40 µM (inactive) |
| CCn1c2ccccc2c2cc(Nc3cc(C)nc4ncnn34)ccc21 | 0.109 µM |
| Cc1sc(NC(=O)c2ccco2)nc1-c1ccc2c(c1)CC(C)N2C(=O)C1CC1 (stereo unspecified) | 16.3 µM (inactive) |
| COc1ccc(NS(=O)(=O)c2cc(C)ccc2NC(=O)c2cc(C)oc2C)cc1 | 0.191 µM |
| Clc1ccc(OCCN2CCN(c3ncnc4sccc34)CC2)cc1 | 0.938 µM |
| Cc1cccc(N2CCN(c3cccc(C)c3)C2c2cccnc2)c1 | 15.8 µM (inactive) |
| CCOC(=O)N1CCN(S(=O)(=O)c2ccc(C(=O)Nc3ccc(F)cc3F)cc2)CC1 | 1.09 µM |
| CC(=O)c1cc2c(cc1NS(=O)(=O)c1ccc(C)cc1)OCCO2 | 5.05 µM (inactive) |

| SMILES | CC50 |
| --- | --- |
| CCCn1c(NC(=O)C2CCN(S(=O)(=O)c3cccs3)CC2)nc2ccccc21 | > 40 µM (inactive) |
| CN(C)S(=O)(=O)c1ccc(C(=O)Nc2nc(-c3cccs3)cs2)cc1 | 21.1 µM (inactive) |
| COc1ccccc1C1C=C(c2ccc(C)cc2)Nc2nnnn21 (stereo unspecified) | > 40 µM (inactive) |
| CCOc1cc(N2CCOCC2)c(OCC)cc1NS(=O)(=O)c1ccc(Cl)s1 | 1.84 µM |
| c1ccc(OCCCCn2cnc3ccccc32)cc1 | 20.3 µM (inactive) |
| CCN(C1CCCCC1)S(=O)(=O)c1ccc(S(=O)(=O)NCc2ccncc2)cc1 | 5.32 µM (inactive) |
| O=C1C2C3C=CC(CO)(O3)C2C(=O)N1c1ccccc1-c1ccccc1 (stereo unspecified) | 6.29 µM (inactive) |
| N=c1c2c(n(Cc3ccc(Cl)cc3Cl)c3c1CCC3)CCCC2 | 2.26 µM |
| CCOc1cc(N2CCOCC2)c(OCC)cc1NC(=O)COc1cccc2cccnc12 | 9.13 µM (inactive) |
| O=C(CCCCn1c(=O)c2ccccc2n(Cc2ccc(F)cc2)c1=O)NCc1ccco1 | 9.14 µM (inactive) |
| COc1ccc(-c2nc3cc(NC(=O)Cc4ccc(OC)c(OC)c4)ccc3o2)cc1 | > 40 µM (inactive) |
| CCN(CC)c1ccc2c(c1)OC(N)=C(C#N)C2c1cccnc1 (stereo unspecified) | 0.0192 µM |
| O=C(c1ccc2c(c1)ncn2C1CCCCC1)N1CCC2(CC1)OCCO2 | 5.19 µM (inactive) |
| Cc1ccsc1C(=O)Nc1nnc(-c2ccco2)o1 | 24.2 µM (inactive) |
| Nc1nnnn1/N=C/C(Br)=C/c1ccccc1 | > 13 µM (inactive) |
| CCN(CC)S(=O)(=O)c1cccc(C(=O)Nc2ccccc2)c1 | 18.3 µM (inactive) |
| CCn1c(-c2ccc(N(C)C)cc2)nc2ccccc21 | 5.93 µM (inactive) |
| CN(C)S(=O)(=O)c1ccc(N2CCN(S(=O)(=O)c3ccc(F)cc3)CC2)c(Cl)c1 | 16.1 µM (inactive) |
| CCOC(=O)N1CCN(CC(=O)Nc2c(C(=O)OC)[nH]c3ccc(Cl)cc23)CC1 | > 40 µM (inactive) |
| C=CCN(C(=O)c1ccccc1)c1ccc(OC)cc1 | 9.5 µM (inactive) |
| CCOc1ccccc1C1CC(=O)Nc2cc3c(cc21)OCCO3 (stereo unspecified) | 0.625 µM |
| O=C(Nc1nc(-c2ccc3c(c2)OCO3)cs1)c1ccncc1 | > 40 µM (inactive) |

| SMILES | CC50 |
| --- | --- |
| CCOC(=O)c1[nH]c(C)c(C(=O)c2cc(F)ccc2F)c1C | 0.204 µM |
| N#CC1=C(N)Oc2cc(N)ccc2C1C1CC=CCC1 (stereo unspecified) | > 4.4 µM (inactive) |
| CC(=O)c1ccc(Oc2cc(C)nc(-n3nc(C)cc3C)n2)cc1 | 0.293 µM |
| COc1ccc(Cn2c(=O)oc3ccc(C)cc32)cc1OC | 13.1 µM (inactive) |
| COc1cccc2sc(Nc3nnc(-c4cccs4)o3)nc12 | 10.6 µM (inactive) |
| N=c1c2c(n(Cc3ccccc3)c3c1CCC3)CCC2 | 3.66 µM |
| C=CS(=O)(=O)c1ccc(Oc2ccc(S(=O)(=O)C=C)cc2)cc1 | 1.9 µM |
| COc1cc(C2C3=C(Nc4ncnn42)c2ccccc2CC3)cc(OC)c1OC (stereo unspecified) | 3.67 µM |
| CCc1ccc(CNc2ccc(O)cc2)cc1 | > 40 µM (inactive) |
| CCOC(=O)C1=C(N)n2c(s/c(=C\c3cccs3)c2=O)=C(C(=O)OCC)C1c1cccs1 (stereo unspecified) | 4.39 µM |
| COC(=O)c1ccc(C)c(NS(=O)(=O)c2ccc3c(c2)OCCO3)c1 | 0.504 µM |
| CCOc1ccc2nc(N3CCC(C(=O)N4CCN(c5ccccn5)CC4)CC3)sc2c1 | 23.7 µM (inactive) |
| COc1ccc(-c2nnc(NC(=O)c3ccc(S(=O)(=O)N4COCC4(C)C)cc3)o2)cc1 | 22.7 µM (inactive) |
| CCc1ccc(CCC(=O)Nc2sc3c(c2C#N)CCCC3)o1 | 3.05 µM |
| CCOC(=O)c1[nH]c(C)c(C(=O)N2CCc3ccccc32)c1C | 0.284 µM |
| COc1cccc2sc(Nc3nc(-c4ccccn4)cs3)nc12 | 2.81 µM |
| O=C(CCNc1ccc(F)c(Cl)c1)c1ccco1 | > 13 µM (inactive) |
| CC(C)c1cc(C(=O)Nc2cc(Cl)ccc2O)no1 | > 40 µM (inactive) |
| c1ccc(-c2nc(N3CCCCCC3)c3ccccc3n2)nc1 | 10.1 µM (inactive) |
| COc1ccccc1-n1cnc2cc(NCc3ccco3)ccc21 | 0.313 µM |
| O=C(Nc1nnc(C2CC2)o1)c1ccc(S(=O)(=O)N2CCCc3ccccc32)cc1 | 22.9 µM (inactive) |
| CCc1ccc(NS(=O)(=O)c2cc(OC)ccc2OC)cc1 | 16.6 µM (inactive) |

| SMILES | CC50 |
| --- | --- |
| O=C(Nc1ccccc1)N1CCC(c2nc(-c3ccc(S(=O)(=O)N4CCOCC4)cc3)no2)CC1 | > 40 µM (inactive) |
| CCOc1ccccc1N1CC(O)=C(c2nc3ccccc3s2)C1=N | 1.84 µM |
| O=C(Nc1ccc(N2CCCCC2)c(Cl)c1)c1cccnc1 | > 40 µM (inactive) |
| O=C1CN=C(c2cccs2)c2c(sc3c2CCCC3)N1 | 7.46 µM (inactive) |
| CCC(=NC(C)c1ccccc1)c1c(O)n(C)c(=O)n(C)c1=O (stereo unspecified) | 11.3 µM (inactive) |
| Cc1cc(C)c2ccc(N)nc2c1O | 6.83 µM (inactive) |
| Fc1ccc(Br)cc1C1C=C(c2cccnc2)Nc2ncnn21 (stereo unspecified) | 8.76 µM (inactive) |
| COc1cc2c(O)c3c(c(-c4ccc5c(c4)OCO5)c2cc1OC)C(=O)OC3 | 5.28 µM (inactive) |
| COc1ccccc1-n1cnc(N)c1C(=O)c1ccccc1 | > 4.4 µM (inactive) |
| O=C(NCCSc1c[nH]c2ccccc12)c1ccc(Br)o1 | > 40 µM (inactive) |
| Cn1nc(CC(=O)Nc2ccc(N3CCN(C(=O)OC(C)(C)C)CC3)cc2)c2ccccc2c1=O | > 13 µM (inactive) |
| Cc1sc(NC(=O)c2ccco2)c(C(c2cccnc2)N2CCN(c3ccc(F)cc3)CC2)c1C (stereo unspecified) | > 40 µM (inactive) |
| CCn1c(NC(=O)c2cccc(Cn3cc(Cl)cn3)c2)nc2ccccc21 | > 40 µM (inactive) |
| Oc1ccc(N=Cc2ccc(O)c(O)c2)cc1 | 25.9 µM (inactive) |
| O=S(=O)(C/C(=C/CO)S(=O)(=O)c1ccccc1)c1ccccc1 | 2.2 µM |
| COc1ccccc1N1CCN(C(=O)CSc2nnc3n2C(C)(C)Cc2ccccc2-3)CC1 | 4.67 µM |
| COc1cccc(C2=CC(c3cccc(OC)c3OC)n3nnnc3N2)c1 (stereo unspecified) | 16.5 µM (inactive) |
| Oc1ccc(Cl)cc1CNc1ccc(Br)cn1 | > 40 µM (inactive) |
| COc1ccc(CCNCc2csc3nc4ccccc4n23)cc1OC | 8.02 µM (inactive) |
| O=S(=O)(CCSc1nc2ccccc2o1)c1nc2ccccc2s1 | 7.25 µM (inactive) |
| Oc1ccccc1-c1nnc(SCCN2CCOCC2)n1Cc1ccccc1 | 1.7 µM |
| CC(C)C1N=C2c3ccccc3N=C(SCC(=O)c3ccc(O)c(O)c3)N2C1=O (stereo unspecified) | 10.2 µM (inactive) |

| SMILES | CC50 |
| --- | --- |
| CCOc1ccc(-c2cc(CCCC(=O)Nc3cccc(OC)c3)no2)cc1 | 0.809 µM |
| O=C(CSc1nc(-c2ccco2)cc(C(F)(F)F)n1)Nc1ccc2c(c1)OCO2 | 5.19 µM (inactive) |
| Cc1cccc(-n2ncc3c(NCc4ccccc4)ncnc32)c1 | 3.86 µM |
| CC1=C(C)CS(=O)N(S(=O)(=O)c2ccc(Cl)cc2)C1 (stereo unspecified) | 2.96 µM |
| CCc1nnc(NC(=O)CSc2nc3cccnc3n2C2CCCCC2)s1 | > 40 µM (inactive) |
| COc1cccc(/C=N/n2c(SC)nnc2-c2ccccc2)c1O | 10 µM (inactive) |
| COc1ccccc1-c1cc(C(F)(F)F)nc(S(=O)(=O)CCCC(=O)N2CCCCC2C)n1 (stereo unspecified) | 4.22 µM |
| CCOC(=O)C(C)Oc1cccc2c(=O)n(CC(=O)NCc3ccc4c(c3)OCO4)ccc12 (stereo unspecified) | 3.9 µM |
| CC1=CC(C)(C)Nc2ccc(OC(=O)c3ccco3)cc21 | 4.78 µM |
| COc1ccc(C(=O)c2ccc(N(C)C)cc2)c(OC)c1 | 1.5 µM |
| CS(=O)(=O)c1ncc(Cl)c(C(=O)Nc2ccc(N3CCOCC3)cc2)n1 | 2.61 µM |
| COc1ccccc1C1C=C(c2ccccc2)Nc2nnnn21 (stereo unspecified) | > 13 µM (inactive) |
| CCn1c(SCC(=O)c2c[nH]c3ccccc23)nnc1-c1cccs1 | 8.26 µM (inactive) |
| CCN(CC)c1nc(C#N)cc(-c2ccc(OC)cc2)n1 | 5.36 µM (inactive) |
| CNC(=O)N(C1=NCC(C)(C)S1)c1ccc(F)c(Cl)c1 | 10.4 µM (inactive) |
| CCN(C(=O)c1ccc(C(C)(C)C)cc1)c1nnc(Cn2nnc3ccccc32)s1 | > 40 µM (inactive) |
| N#CC1=C2SCC(O)(c3ccccc3)N2C(=O)CC1c1cccs1 (stereo unspecified) | 0.361 µM |
| O=c1cc(-c2ccccc2)[nH]c2nc3ccccc3n12 | 9.38 µM (inactive) |
